Assay results from article PMC3582025 (European journal of pharmacology, 2012).
pKi: −log10 of the molar value. Several values for one entry are separate records, joined by “and”; a condition that tells them apart may be missing. Identical values can stand only once. Counter-ions that a name gives are not always drawn. Like-named read-outs stand apart in the source and are kept apart here.

How the values were obtained:
[1] = molecular target: norepinephrine transporter (NET) (Homo sapiens, UniProt P23975); experiment: cell-based; assay type: cell-based
[2] = molecular target: dopamine transporter (DAT) (Homo sapiens, UniProt Q01959); experiment: cell-based
[3] = molecular target: serotonin transporter (SERT) (Homo sapiens, UniProt P31645); experiment: cell-based; assay type: cell-based
[4] = molecular target: SERT (Homo sapiens, UniProt P31645); experiment: Radioligand binding assay
[5] = molecular target: 5-HT2B serotonin receptors (Homo sapiens, UniProt P41595); experiment: Radioligand binding assay; conditions: for pKi: 5-HT2B receptor affinity Ki
[6] = molecular target: T1, α2C adrenoceptors (Homo sapiens, UniProt P18825); experiment: Radioligand binding assay; conditions: α2C adrenoceptor affinity Ki
T1 sequence (P18825 1-462): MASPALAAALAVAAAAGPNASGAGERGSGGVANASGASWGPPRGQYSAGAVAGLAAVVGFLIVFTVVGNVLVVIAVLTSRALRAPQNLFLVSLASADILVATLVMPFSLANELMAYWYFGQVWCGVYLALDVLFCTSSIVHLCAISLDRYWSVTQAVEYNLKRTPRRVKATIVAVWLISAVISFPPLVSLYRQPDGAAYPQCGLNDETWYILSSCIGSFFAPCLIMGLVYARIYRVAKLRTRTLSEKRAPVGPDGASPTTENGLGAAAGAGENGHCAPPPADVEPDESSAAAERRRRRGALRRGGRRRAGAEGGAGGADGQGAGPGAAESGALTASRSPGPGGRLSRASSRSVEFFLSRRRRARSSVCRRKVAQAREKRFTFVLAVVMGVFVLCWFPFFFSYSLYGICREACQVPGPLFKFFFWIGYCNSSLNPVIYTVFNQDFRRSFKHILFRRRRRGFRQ

[7] = molecular target: human cloned 5-HT2B receptor (Homo sapiens, UniProt P41595); experiment: 5-HT2B functional assay, intracellular Ca++ mobilization; assay type: cell-based; conditions: HEK-T cells
[8] = molecular target: DAT (Homo sapiens, UniProt Q01959); experiment: Radioligand binding assay
[9] = tested on: dopamine uptake in rat brain synaptosomes; conditions: ref Martinez-Clemente et al (2011); cited from earlier work
[10] = tested on: serotonin uptake in rat brain synaptosomes; conditions: ref Martinez-Clemente et al (2011); cited from earlier work
[11] = molecular target: NET (Homo sapiens, UniProt P23975); experiment: Radioligand binding assay
[12] = NET Ki, inhibition of transporter uptake activity
[13] = DAT Ki, inhibition of transporter uptake activity
[14] = DAT pKi (mean +/- S.E.M), inhibition of transporter uptake activity, N=3
[15] = SERT Ki, inhibition of transporter uptake activity
[16] = NET pKi (mean +/- S.E.M), inhibition of transporter uptake activity, N=3
[17] = inhibition of transporter uptake activity
[18] = SERT pKi (mean +/- S.E.M), inhibition of transporter uptake activity, N=3
[19] = inhibition of transporter uptake activity, N=3

dopamine transporter (DAT), sequence (Q01959 whole entry): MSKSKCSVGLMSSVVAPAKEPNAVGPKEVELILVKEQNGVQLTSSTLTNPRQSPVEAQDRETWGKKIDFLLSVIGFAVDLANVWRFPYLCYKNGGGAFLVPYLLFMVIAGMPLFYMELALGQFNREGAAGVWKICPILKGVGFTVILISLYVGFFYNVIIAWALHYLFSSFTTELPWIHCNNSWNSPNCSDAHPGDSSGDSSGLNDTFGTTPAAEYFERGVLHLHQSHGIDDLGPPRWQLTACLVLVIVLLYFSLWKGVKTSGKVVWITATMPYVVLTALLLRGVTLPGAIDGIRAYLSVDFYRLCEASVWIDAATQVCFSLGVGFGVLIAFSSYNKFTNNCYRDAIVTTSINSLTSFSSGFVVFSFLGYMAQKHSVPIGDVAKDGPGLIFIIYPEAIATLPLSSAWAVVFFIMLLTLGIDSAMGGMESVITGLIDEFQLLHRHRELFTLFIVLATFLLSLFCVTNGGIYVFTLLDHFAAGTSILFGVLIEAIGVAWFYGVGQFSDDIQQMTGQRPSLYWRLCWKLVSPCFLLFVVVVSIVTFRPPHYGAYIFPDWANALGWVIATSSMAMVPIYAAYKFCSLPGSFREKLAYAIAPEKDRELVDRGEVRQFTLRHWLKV
5-HT2B serotonin receptors, sequence (P41595 whole entry): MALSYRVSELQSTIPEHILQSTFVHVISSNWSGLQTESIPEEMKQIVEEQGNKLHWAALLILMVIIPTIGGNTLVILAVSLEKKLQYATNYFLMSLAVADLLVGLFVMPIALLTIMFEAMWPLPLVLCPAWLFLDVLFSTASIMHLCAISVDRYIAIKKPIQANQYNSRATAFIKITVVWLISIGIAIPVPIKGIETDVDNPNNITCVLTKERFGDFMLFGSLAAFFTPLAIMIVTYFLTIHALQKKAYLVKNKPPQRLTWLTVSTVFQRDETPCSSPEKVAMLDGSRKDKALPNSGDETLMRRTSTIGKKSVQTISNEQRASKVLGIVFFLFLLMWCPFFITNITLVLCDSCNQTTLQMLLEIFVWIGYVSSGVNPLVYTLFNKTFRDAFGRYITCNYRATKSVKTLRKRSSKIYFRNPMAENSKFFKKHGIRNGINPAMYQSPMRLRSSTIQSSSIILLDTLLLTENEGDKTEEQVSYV
human cloned 5-HT2B receptor, sequence (P41595 whole entry): as above
norepinephrine transporter (NET), sequence (P23975 whole entry): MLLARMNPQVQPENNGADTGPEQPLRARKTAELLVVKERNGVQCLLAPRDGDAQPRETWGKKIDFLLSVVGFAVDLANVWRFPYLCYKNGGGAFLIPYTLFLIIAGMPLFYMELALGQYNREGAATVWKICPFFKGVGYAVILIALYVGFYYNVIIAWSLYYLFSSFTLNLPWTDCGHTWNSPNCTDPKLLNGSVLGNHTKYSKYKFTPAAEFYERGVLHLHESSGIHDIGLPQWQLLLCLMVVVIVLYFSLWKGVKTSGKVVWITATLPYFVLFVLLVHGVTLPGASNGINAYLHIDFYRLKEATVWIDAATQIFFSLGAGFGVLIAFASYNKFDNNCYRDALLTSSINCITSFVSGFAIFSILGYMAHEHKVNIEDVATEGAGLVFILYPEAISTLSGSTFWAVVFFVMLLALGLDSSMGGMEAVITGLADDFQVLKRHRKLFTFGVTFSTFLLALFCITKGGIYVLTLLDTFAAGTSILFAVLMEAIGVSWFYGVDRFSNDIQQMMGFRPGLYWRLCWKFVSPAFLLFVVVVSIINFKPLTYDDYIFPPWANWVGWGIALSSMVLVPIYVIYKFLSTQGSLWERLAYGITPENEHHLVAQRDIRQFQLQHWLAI
serotonin transporter (SERT), sequence (P31645 whole entry): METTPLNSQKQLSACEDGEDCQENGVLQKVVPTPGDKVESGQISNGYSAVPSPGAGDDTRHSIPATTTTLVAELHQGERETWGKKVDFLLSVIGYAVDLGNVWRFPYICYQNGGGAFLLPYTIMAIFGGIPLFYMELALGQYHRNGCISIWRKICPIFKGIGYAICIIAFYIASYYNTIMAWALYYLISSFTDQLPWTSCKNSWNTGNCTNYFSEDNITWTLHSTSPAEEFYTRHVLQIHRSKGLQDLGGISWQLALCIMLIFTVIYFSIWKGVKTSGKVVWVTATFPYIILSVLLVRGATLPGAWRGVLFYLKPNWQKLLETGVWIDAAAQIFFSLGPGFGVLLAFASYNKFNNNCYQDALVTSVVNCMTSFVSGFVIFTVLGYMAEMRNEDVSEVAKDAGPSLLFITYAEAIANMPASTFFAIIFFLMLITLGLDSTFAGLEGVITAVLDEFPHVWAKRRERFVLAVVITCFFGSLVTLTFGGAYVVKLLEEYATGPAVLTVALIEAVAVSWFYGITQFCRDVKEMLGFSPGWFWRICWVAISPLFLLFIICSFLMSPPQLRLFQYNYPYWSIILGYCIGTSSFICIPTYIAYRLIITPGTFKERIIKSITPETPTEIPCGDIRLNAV
SERT, sequence (P31645 whole entry): as above
DAT, sequence (Q01959 whole entry): as the sequence (Q01959 whole entry) above
NET, sequence (P23975 whole entry): as the sequence (P23975 whole entry) above

Compound	pKi [1, 12]	pKi [2, 13]	pKi [2, 14]	pKi [3, 15]	pKi [1, 16]	pKi [3, 18]	other results
CCCC(C(=O)c1cccc2ccccc12)N1CCCC1.Cl (stereo not drawn) [1-Naphyrone, 1-naphthalen-1-yl-2-pyrrolidin-1-ylpentan-1-one hydrochloride]	6.27	7.32	7.32	6.45			NET Ki [1]: submicromolar; DAT Ki [2]: submicromolar; pKi ([2]; DAT Ki): > 7.00; SERT Ki [3]: submicromolar; pKi [4]: > 7.00; 5-HT2B receptor affinity Ki [5]: submicromolar
CC(N)Cc1ccc2occc2c1.Cl (stereo not drawn) [5-APB, 1-(benzofuran-5-yl)propan-2-amine hydrochloride]	6.74	6.58	6.30	6.09	6.33	5.78	NET Ki [1, 17]: submicromolar; DAT Ki [2, 17]: submicromolar; SERT Ki [3, 17]: submicromolar; pKi [6]: > 7.00; 5-HT2B agonist EC50 [7]: nanomolar; 5-HT2B agonist activity [7]: potent full agonists; pKi [8]: > 7.00; pKi [5]: > 7.00 and 7.85
NC1Cc2ccc(I)cc2C1 (stereo not drawn) [5-iod-2-aminoindane, 5-iodo-2,3-dihydro-1H-inden-2-amine hydrochloride]	6.51	5.80	5.61	6.06	6.09	5.75	
CC(N)Cc1ccc2ccoc2c1.Cl (stereo not drawn) [6-APB, 1-(benzofuran-6-yl)propan-2-amine hydrochloride]	6.93	6.82	6.63	5.57	6.52	5.26	pKi [6]: 7.35; 5-HT2B agonist EC50 [7]: nanomolar; 5-HT2B agonist activity [7]: potent full agonists; pKi [5]: 8.43
CN[C@@H](C)Cc1ccc2c(c1)OCO2 [(+)-MDMA, 3,4-methylenedioxymethamphetamine, reference compound]							pKi ([1]; NET Ki): 6.40; pKi ([1]; NET pKi (mean +/- S.E.M)): 5.70; pKi ([2]; DAT Ki): 6.05; pKi ([2]; DAT pKi (mean +/- S.E.M)): 5.62; pKi ([3]; SERT Ki): 6.02; pKi ([3]; SERT pKi (mean +/- S.E.M)): 5.56
CN[C@H](C)Cc1ccc2c(c1)OCO2 [(−)-MDMA, 3,4-methylenedioxymethamphetamine, reference compound]							pKi ([1]; NET Ki): 6.15; pKi ([1]; NET pKi (mean +/- S.E.M)): 5.50; pKi ([2]; DAT Ki): 5.62; pKi ([2]; DAT pKi (mean +/- S.E.M)): 5.21; pKi ([3]; SERT Ki): 5.64
CN(C)CCC=C1c2ccccc2CCc2ccccc21 [Amitriptyline, reference compound]							pKi ([2]; DAT Ki): 5.33; pKi ([2]; DAT pKi (mean +/- S.E.M)): 5.01
Cc1ccc(C(=O)C(C)NCc2ccccc2)cc1 (stereo not drawn) [Benzedrone, 2-(benzylamino)-1-(4-methylphenyl)propan-1-one hydrochloride]	5.91	5.85 and 5.83	5.64	< 5.00	5.50	4.75	
c1ccc(C(c2ccccc2)C2CCCCN2)cc1 (stereo not drawn) [Desoxypipradrol, 2-benzhydrylpiperidine hydrochloride]	6.67	7.49	7.30	< 5.00	6.26	4.27	
CCC(C)CC(C)N (stereo not drawn) [Dimethylamylamine, 4-methylhexan-2-amine hydrochloride]	6.19	< 5.00	4.74	< 5.00	5.77	3.75	
CNC(C)C(=O)c1ccc(C)cc1.Cl (stereo not drawn) [Mephedrone, 2-methylamino-1-(4-methylphenyl)propan-1-one hydrochloride]	6.29	6.27	6.08	5.31		4.99	concentration inhibiting dopamine uptake [9]: submicromolar; concentration inhibiting serotonin uptake [10]: submicromolar; 5-HT2B receptor affinity Ki [5]: submicromolar
CNC(C)Cc1cccs1.Cl (stereo not drawn) [Methiopropamine, methyl[(1-(2-thienyl)]propan-2-amine hydrochloride]							pKi ([1]; read-out: NET Ki, inhibition of transporter uptake activity): 6.50; pKi ([2]; read-out: DAT Ki, inhibition of transporter uptake activity): 6.24; pKi ([3]; read-out: SERT Ki, inhibition of transporter uptake activity): < 5.00
CNC(C)Cc1cccs1.Cl (stereo not drawn) [Methiopropamine]							NET pKi (mean +/- S.E.M) [1, 19]: 6.09±0.07; DAT pKi (mean +/- S.E.M) [2, 19]: 6.05±0.07; SERT pKi (mean +/- S.E.M) [3, 19]: 4.14±0.07
CC(NCc1ccccc1)C(=O)c1ccc2c(c1)OCO2 (stereo not drawn) [Methylenedioxy-N-benzylcathinone, 2-(benzylamino)-1-(3,4-methylenedioxyphenyl)propan-1-one]	5.79	6.20	6.01	< 5.00	5.37	4.53	
NC1Cc2cc3c(cc2C1)OCO3 [Methylenedioxy-aminoindane, 6,7-dihydro-5H-cyclopenta[f][1,3]benzodioxol-6-amine]	6.19	5.31	5.12		5.78		pKi ([3]; SERT Ki): < 5.00; pKi ([3]; SERT pKi (mean +/- S.E.M)): 4.93
Cl.NC1CCc2cc3c(cc2C1)OCO3 (stereo not drawn) [Methylenedioxy-aminotetralin, 5,6,7,8-tetrahydrobenzo[f][1,3]benzodioxol-6-amine hydrochloride]	6.05	5.39	5.20	5.96	5.64	5.65	5-HT2B receptor affinity Ki [5]: submicromolar
CCNC(C)C(=O)c1ccc(C)cc1 (stereo not drawn) [Methylethcathinone, 2-ethylamino-1-(4-methylphenyl)propan-1-one hydrochloride]	5.78	6.25	6.08	5.75	5.36	5.43	
CCCC(C(=O)c1ccc2ccccc2c1)N1CCCC1.Cl (stereo not drawn) [Naphyrone, 1-naphthalen-2-yl-2-pyrrolidin-1-ylpentan-1-one hydrochloride]							NET Ki [1]: submicromolar; pKi ([1]; NET Ki): 6.70; DAT Ki [2]: submicromolar; pKi ([2]; DAT Ki): 7.28; pKi ([2]; DAT pKi (mean +/- S.E.M)): 7.28; SERT Ki [3]: submicromolar; pKi ([3]; SERT Ki): 6.63; pKi [11]: > 7.00; pKi [4]: > 7.00; 5-HT2B receptor affinity Ki [5]: submicromolar
